The text below walks through data of patent publication US11512053B2, “Arginine methyltransferase inhibitors and uses thereof” (priority 2013, dated 2022).

The target of the test is full-length human PRMT8 isoform 1 (Homo sapiens, UniProt Q9NR22). Briefly: PRMT8 Biochemical Assay (3H-SAM Flashplate, peptide substrate). The settings on record: single experiment or average of multiple experiments; read-out: Biochemical IC50 PRMT8. The gist of the method: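 Full-length human PRMT8 (1.5 nM, E. coli-expressed, GST removed) preincubated 30 min at room temperature with compound, then reacted with 50 nM 3H-SAM plus 550 nM cold SAM and 150 nM biotinylated H4 31-45 peptide in 20 mM Bicine pH 7.6, 1 mM TCEP, 0.005% BSG, 0.002% Tween 20, 2% DMSO. Quenched with 400 uM cold SAM; labelled peptide captured on streptavidin Flashplate, % inhibition versus 1 mM SAH and DMSO controls fitted to 4- or 3-parameter curve.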
Sequence of full-length human PRMT8 isoform 1 (Q9NR22 whole entry, canonical isoform): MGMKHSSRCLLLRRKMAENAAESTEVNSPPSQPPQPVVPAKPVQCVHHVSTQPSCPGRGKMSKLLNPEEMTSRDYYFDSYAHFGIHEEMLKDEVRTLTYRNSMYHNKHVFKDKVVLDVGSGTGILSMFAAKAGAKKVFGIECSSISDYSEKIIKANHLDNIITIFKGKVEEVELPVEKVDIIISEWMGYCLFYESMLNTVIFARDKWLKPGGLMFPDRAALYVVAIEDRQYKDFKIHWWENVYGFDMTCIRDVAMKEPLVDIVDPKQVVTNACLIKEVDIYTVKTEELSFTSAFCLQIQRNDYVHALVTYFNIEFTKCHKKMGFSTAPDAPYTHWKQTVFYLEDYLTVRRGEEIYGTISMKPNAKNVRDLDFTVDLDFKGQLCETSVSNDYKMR

In the case of `CNCCN(C)Cc1c[nH]nc1C#Cc1ccccc1` [Compound 3], the IC50 was 950 nM.

By IC50 is commonly meant the point on the concentration scale where inhibition reaches its midpoint.
